# Source: patent publication EP1595878A1, “INDOLE DERIVATIVES WITH APOPTOSIS INDUCING ACTIVITY” (Zentaris GmbH, priority 2004, dated 2005)
# Where two headings read alike, the source gives them in different places.
# Assays:
# LT12/mdr = experiment: XTT proliferation assay, resistant LT12/mdr; format: cell-based; settings: Rattus norvegicus
# Text: (§1) Die Substanzen 1, 2, 4, 9, 11, 12 , 13 und 15 wurden in einem Proliferationstest an etablierten Tumorzelllinien auf ihre anti-proliferative Aktivität hin untersucht (D.A. Scuderio et al. Cancer Res. 1988, 48, 4827-4833). Der verwendete Test bestimmt die zelluläre Dehydrogenase-Aktivität und ermöglicht eine Bestimmung der Zellvitalität und indirekt der Zellzahl. Bei den verwendeten Zelllinien handelt es sich um die humane Cervixkarzinom Zelllinie KB/HeLa (ATCC CCL17), die ovariale Adenokarzinomzelllinie SKOV-3 (ATCC HTB77), die humane Glioblastom Zelllinie SF-268 (NCI 503138) und die Lungenkarzinom Zelllinie NCI-H460 (NCI 503473). Tabelle 1:
# (§2) Zur weiteren Charakterisierung wurden die Substanzen 1, 2, 4 und 11 gegenüber multi drug resistenten Zelllinien im Vergleich zu den nicht-resistenten Wildtypzelllinien untersucht.
# (§3) Bei den untersuchten Zelllinien handelt es sich um die murine L1210, die akute myeloische Leukaemie Zelllinie LT12 und um die resistenten Linien L1210/mdr und LT12/mdr. Außerdem wurden die murine P388 Zelllinie (methyl-cholanthreneinduced lymphoid neoplasm) sowie die Doxorubicin-resistente P388 als Testsysteme herangezogen.
# L1210VCR = experiment: XTT proliferation assay, resistant L1210; format: cell-based, murine; settings: Mus musculus
# Text: as §1, §2, §3
# [1] = test system: Doxorubicin-resistente P388; experiment: XTT proliferation assay, doxorubicin-resistant P388; format: cell-based, murine; settings: Mus musculus
# Text: as §1, §2, §3
# Rindertubulin = experiment: Inhibition of tubulin polymerisation in vitro; format: biochemical, Rind; settings: for Hemmwirkung auf die Polymerisation von Tubulin: verbal summary of Table 3
# Text: Die Substanzen 1, 4, 9, 11, 12, 13 und 15 wurden in einem in-vitro Test auf Hemmung der Polymerisation von Rindertubulin getestet (D.M. Bollag et al. Cancer Res. 1995, 55, 2325-2333). In diesem Test wird durch Zyklen von Polymerisation und Depolymerisation aufgereinigtes Tubulin eingesetzt, welches durch Zugabe von GTP und Erwärmung zur Polymerisation gebracht wird. In Tabelle 3 sind die EC50 Werte der Polymerisationshemmung von Tubulin mit 30% assoziierten Proteinen (MAPs) angegeben.
# [2] = molecular target: humaner DNA-Topoisomerase II (Homo sapiens, UniProt P11388); experiment: kDNA decatenation assay for topoisomerase II activity; format: biochemical; settings: compound 1 at 100, 31.6 and 10 µM; reference compounds at 100 µM
# humaner DNA-Topoisomerase II, sequence (P11388 whole entry): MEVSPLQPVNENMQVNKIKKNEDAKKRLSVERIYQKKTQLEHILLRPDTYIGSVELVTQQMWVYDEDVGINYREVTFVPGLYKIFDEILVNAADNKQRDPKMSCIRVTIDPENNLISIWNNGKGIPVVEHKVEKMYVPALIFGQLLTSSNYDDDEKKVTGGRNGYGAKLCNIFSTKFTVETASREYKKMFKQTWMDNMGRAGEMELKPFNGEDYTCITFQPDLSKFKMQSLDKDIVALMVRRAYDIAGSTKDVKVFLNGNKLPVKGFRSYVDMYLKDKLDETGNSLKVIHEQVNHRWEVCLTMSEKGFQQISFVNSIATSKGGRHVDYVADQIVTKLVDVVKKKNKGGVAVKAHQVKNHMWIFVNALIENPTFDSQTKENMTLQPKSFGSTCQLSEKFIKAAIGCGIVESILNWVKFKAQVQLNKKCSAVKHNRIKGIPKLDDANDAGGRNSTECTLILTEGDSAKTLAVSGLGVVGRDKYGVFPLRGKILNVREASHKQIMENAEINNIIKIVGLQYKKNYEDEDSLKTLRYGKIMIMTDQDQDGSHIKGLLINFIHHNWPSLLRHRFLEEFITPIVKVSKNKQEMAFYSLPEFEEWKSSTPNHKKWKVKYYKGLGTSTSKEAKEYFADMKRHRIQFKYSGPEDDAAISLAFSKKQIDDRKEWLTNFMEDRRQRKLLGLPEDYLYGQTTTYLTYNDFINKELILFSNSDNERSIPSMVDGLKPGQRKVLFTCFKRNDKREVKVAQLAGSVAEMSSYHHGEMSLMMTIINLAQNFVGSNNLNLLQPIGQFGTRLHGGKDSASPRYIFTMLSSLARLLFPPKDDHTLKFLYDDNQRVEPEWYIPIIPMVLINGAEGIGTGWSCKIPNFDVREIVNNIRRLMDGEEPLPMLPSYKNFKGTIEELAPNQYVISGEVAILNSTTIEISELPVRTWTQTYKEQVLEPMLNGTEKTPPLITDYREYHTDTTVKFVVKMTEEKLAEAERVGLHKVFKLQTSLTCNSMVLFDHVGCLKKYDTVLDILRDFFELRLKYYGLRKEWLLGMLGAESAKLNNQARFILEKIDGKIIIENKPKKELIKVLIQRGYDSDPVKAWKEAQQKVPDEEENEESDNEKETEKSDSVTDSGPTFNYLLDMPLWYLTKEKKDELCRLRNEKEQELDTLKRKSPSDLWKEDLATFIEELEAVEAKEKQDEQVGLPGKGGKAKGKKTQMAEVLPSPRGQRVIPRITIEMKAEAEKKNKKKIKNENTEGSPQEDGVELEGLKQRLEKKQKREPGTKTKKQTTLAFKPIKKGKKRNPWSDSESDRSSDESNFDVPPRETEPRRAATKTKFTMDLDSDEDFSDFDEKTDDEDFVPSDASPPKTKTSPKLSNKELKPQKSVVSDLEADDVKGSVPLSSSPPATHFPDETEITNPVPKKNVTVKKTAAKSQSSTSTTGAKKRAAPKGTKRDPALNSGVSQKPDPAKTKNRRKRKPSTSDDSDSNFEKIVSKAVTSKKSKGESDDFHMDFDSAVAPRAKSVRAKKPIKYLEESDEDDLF
# Description: In diesem von P. Arimondo (Anti-Cancer Drug Design 2000, 15 (6), 413-421) beschriebenen Assay wird kDNA mit humaner DNA-Topoisomerase II in Abwesenheit oder Gegenwart der Testverbindungen behandelt. Die Testung der erfindungsgemäßen Verbindung 1 erfolgte hierbei bei drei unterschiedlichen Konzentrationen (100, 31.6 und 10 µM). Zum Vergleich setzte man eine Positivkontrolle und die Referenzverbindungen m-Amsacrin (m-Amsa), Paclitaxel (Taxol) und Vincristine bei einer jeweiligen Konzentration von 100µM ein.
# Zu 1µL vorgelegter Testsubstanz (20fach konzentriert in 100% DMSO) werden 2µL 10x Assay Puffer, 1µL kDNA (200ng), 0,5µL human Topoisomerase II (1unit) und 15,5µL H2O pipettiert und gemischt.
# Die Reaktionsansätze werden in den auf 37°C vorgeheizten Heizblock gestellt und 10min bei 37°C inkubiert. Die Inkubation wird nach Zugabe von 4µL 5x Stop Puffer gestoppt und nachfolgend die Substanz mit CIA extrahiert. Danach werden 20µL des Überstandes auf ein 1 % Agarosegel mit 0,25µg/mL Ethidiumbromid aufgetragen und 1 h bei 100V aufgetrennt. Zum Schluss wird das Gel unter UV-Anregung fotografiert (s. Figur 1). Die Quantifizierung der Inhibierung der Decatenation von kDNA erfolgt mit der GelPro®Analyzer Software (s. Figur 2)
# human Topoisomerase II = human Topoisomerase II (Homo sapiens, UniProt P11388); experiment: pRYG relaxation assay for topoisomerase II activity; format: biochemical; settings: compound 1 at 100, 31.6 and 10 µM; reference compounds at 316 and 100 µM
# human Topoisomerase II, sequence (P11388 whole entry): as above
# Description: Mit diesem Relaxationsassay konnte zusätzlich die inhibitorische Eigenschaft der erfindungsgemäßen Verbindungen auf Topoisomerase II gezeigt werden. Die Testung der erfindungsgemäßen Verbindung 1 erfolgte hierbei bei drei unterschiedlichen Konzentrationen (100, 31.6 und 10 µM). Zum Vergleich setzte man die Referenzverbindungen m-Amsacrin, Paclitaxel (Taxol) und Vincristine bei Konzentrationen von 316 und 100µM ein.
# Zu 1µL vorgelegter Testsubstanz (20fach konzentriert in 100% DMSO) werden 2µL 10x Assay Puffer, 0,5µL pRYG DNA (125ng), 0,5µL human Topoisomerase II (1 unit) und 16µL H2O pipettiert und gemischt. Die Reaktionsansätze werden in den auf 37°C vorgeheizten Heizblock gestellt und 30min bei 37°C inkubiert. Die Inkubation wird nach Zugabe von 4µL 5x Stop Puffer abgestoppt. Danach werden 10µL des Ansatzes auf ein 1,2% Agarosegel mit 0,25µg/mL Ethidiumbromid aufgetragen und 2,5h bei 100V aufgetrennt. Zum Schluß wird das Gel unter UV Anregung fotografiert (s. Figur 3). Die Quantifizierung der Inhibierung der pRYG Relaxation erfolgt mit der GelPro®Analyzer Software (s. Figur 4).
# KB/HeLa Zellen = experiment: Cell cycle analysis (G2/M arrest); format: cell-based; settings: Homo sapiens, read-out: EC50 in nM (50% cells in G2/M)
# Text: Der Zellzyklus umfasst die Entwicklung der Zelle von einer Zellgeneration zur nächsten.
# Während der Ruhephase (G0) und präsynthetischen Phase (G1) besitzt die Zelle einen diploiden Chromosomensatz (2c). In der Synthesephase (S) wird die DNA-Menge durch Replikation vermehrt. Die S-Phase endet mit Erreichen der prämitotischen Phase (G2M), in der die Zelle einen reduplizierten Chromosomenbestand (4c) und verdoppelten DNA-Gehalt aufweist. In der nachfolgenden, kurzdauernden Mitosephase (M) kommt es zur gleichmäßigen Aufteilung der reduplizierten Chromosomen auf zwei Tochterzellen, die dann jeweils wieder einen diploiden DNA Gehalt zeigen und sich in der G01-Phase befinden, so daß der Zellzyklus neu beginnen kann.
# Für die Zellzyklusanalyse wurden KB/HeLa Zellen mit den Testsubstanzen in unterschiedlichen Konzentrationen (0.1-1000 nM) 24 Stunden bei 37°C behandelt.
# Der prozentuale Anteil der in der G2/M Phase des Zellzyklus arrettierten Zellen nach Behandlung mit Referenz- oder ausgewählten Testsubstanzen ist in der nachfolgenden Tabelle 4 dargestellt. Die Ergebnisse wurden mit einer speziellen Analysesoftware (ModFit™) ausgewertet.
# U-937 Zelllinie = experiment: CDD plus nucleosome ELISA test (apoptosis detection); format: cell-based; settings: U-937, 1nM-10µM, 24 h treatment; for Nucleosomen im Zelllysat: cell lysate; for Nucleosomen im Zellkulturüberstand: culture supernatant
# Text: Die Kernfragmentierung ist eine Spätfolge apoptotischer Prozesse. Die dabei zu beobachtenden Veränderungen lassen sich auf durch Endonukleasen gespaltene DNA-Stränge und daraus resultierende Fragmentierung in Nucleosomen Partikel zurückführen.
# Zum Nachweis der Nucleosomen Partikel wurde der von der Firma Roche Molecular Biochemicals beschriebene CDD^plus Nucleosomen ELISA Test eingesetzt. Hierzu untersuchte man die Verbindungen 1 und 2 an der U-937 Zelllinie bei unterschiedlichen Konzentrationen (1nM-10µM, 24 h Behandlung). (s. Figur 5 und Figur 6)
# [3] = format: physicochemical; settings: water, at most 1 % DMSO added
# Text: Die Bestimmung der Sättigungslöslichkeit in Wasser für die Verbindungen 1, 2, 10 und 14 erfolgte wie nachfolgend beschrieben. Zum Anlösen der Substanzen und um die Benetzung der Proben zu verbessern, wurde maximal 1 % DMSO zugesetzt. Zur Überprüfung des Gehaltes wurde eine HPLC-UV-Methode angewandt. Die Ergebnisse sind in der nachfolgenden Tabelle 5 zusammengefasst: Tabelle 5: […]
# [4] = test system: humane Cervixkarzinom Zelllinie KB/HeLa (ATCC CCL17); experiment: XTT proliferation assay (cytotoxicity test), KB/HeLa; format: cell-based; settings: Homo sapiens, read-out: XTT Proliferationsassay, EC50
# Text: as §1, with “503473).” for “503473). Tabelle 1:”
# [5] = test system: ovariale Adenokarzinomzelllinie SKOV-3 (ATCC HTB77); experiment: XTT proliferation assay (cytotoxicity test), SKOV-3; format: cell-based; settings: Homo sapiens, SK-OV-3; SKOV3; read-out: XTT Proliferationsassay, EC50
# Text: as §1, with “503473).” for “503473). Tabelle 1:”
# [6] = test system: humane Glioblastom Zelllinie SF-268 (NCI 503138); experiment: XTT proliferation assay (cytotoxicity test), SF-268; format: cell-based; settings: Homo sapiens, read-out: XTT Proliferationsassay, EC50
# Text: as §1, with “503473).” for “503473). Tabelle 1:”
# [7] = test system: Lungenkarzinom Zelllinie NCI-H460 (NCI 503473); experiment: XTT proliferation assay (cytotoxicity test), NCI-H460; format: cell-based; settings: Homo sapiens, NCl-H460, read-out: XTT Proliferationsassay, EC50
# Text: as §1, with “503473).” for “503473). Tabelle 1:”
# [8] = test system: akute myeloische Leukaemie Zelllinie LT12; experiment: XTT proliferation assay, LT12 wild type; format: cell-based; settings: Rattus norvegicus, LT12, read-out: XTT Proliferationsassay, EC50
# Text: as §1, §2, §3
# murine L1210 = experiment: XTT proliferation assay, L1210 wild type; format: cell-based; settings: Mus musculus, L1210, read-out: XTT Proliferationsassay, EC50
# Text: as §1, §2, §3
# [9] = test system: murine P388 Zelllinie (methyl-cholanthreneinduced lymphoid neoplasm); experiment: XTT proliferation assay, P388 wild type; format: cell-based; settings: Mus musculus, P388, read-out: XTT Proliferationsassay, EC50
# Text: as §1, §2, §3
# Melanom, MEXF462 = format: in vivo, Mäuse; settings: 80 mg/kg p.o.; day 18
# Text: Die in vivo Aktivität und Verträglichkeit der erfindungsgemäßen Verbindung 2 wurde im Vergleich zu den Substanzen 10 und 14 in einem humanen Xenograft-Modell (Melanom, MEXF462) überprüft. Die Ergebnisse sind in der nachfolgenden Tabelle 6 zusammengefasst: in vivo Aktivitäten von Verbindung 2, 10 and 14 (Melanom; MEXF462) Tabelle 6: […]
# Mamma, MAXF857 = format: in vivo, Mäuse; settings: 80 mg/kg p.o.
# Text: Die in vivo Aktivität und Verträglichkeit der erfindungsgemäßen Verbindung 2 wurde im Vergleich zu der Substanz 10 in einem weiteren humanen Xenograft-Modell (Mamma, MAXF857) überprüft. Die Ergebnisse werden in der nächsten Tabelle gezeigt: Effect of 2 and 10 on the Mammary Cancer MAXF857 Tabelle 7: […]
# [10] = LT12, LT12mdr, read-out: XTT Proliferationsassay, EC50
# [11] = L1210, L1210VCR, read-out: XTT Proliferationsassay, EC50
# [12] = P388, P388ADR, read-out: XTT Proliferationsassay, EC50
# [13] = KB/HeLa cells, 0.1-1000 nM, 24 h at 37°C
structure (smiles),measurement,setting,value
"O=C(Nc1cnc2nccnc2c1)C(=O)c1cn(Cc2ccc(Cl)cc2)c2ccccc12 [Verbindung 1, 2-[1-(4-Chlor-benzyl)-1H-indol-3-yl]-2-oxo-N-pyrido[2,3-b]pyrazin-7-yl-acetamid]",EC50,LT12/mdr; [10],0.017 µg/mL
same,EC50,L1210VCR; [11],0.021 µg/mL
same,EC50,[1]; [12],0.019 µg/mL
same,"Hemmung der Tubulin-Polymerisation, EC50","Rindertubulin; tubulin with 30% associated proteins (MAPs), mean of two independent experiments",0.71 µg/mL
same,Hemmwirkung auf die Polymerisation von Tubulin,Rindertubulin,sehr potente Hemmwirkung
same,Hemmung der Topoisomerase II (Inhibierung der Decatenation von kDNA),[2],signifikante Hemmung
same,Hemmung der Topoisomerase II (Inhibierung der pRYG Relaxation),human Topoisomerase II,signifikante Hemmung
same,EC50,KB/HeLa Zellen; [13],25.2 nM
same,Nucleosomen im Zelllysat,U-937 Zelllinie,konzentrationsabhängiger Anstieg
same,Nucleosomen im Zellkulturüberstand,U-937 Zelllinie,kein signifikanter Anstieg
same,Sättigungslöslichkeit in Wasser,[3],25.0 µg/mL
"CC(=O)N(C(=O)C(=O)c1cn(Cc2ccc(Cl)cc2)c2ccccc12)c1ccc2ncccc2c1 [Verbindung 2, N-{2-[1-(4-Chlor-benzyl)-1H-indol-3-yl]-2-oxo-acetyl}-N-chinolin-6-yl-acetamid]",EC50,[4],0.202 µg/mL
same,EC50,[5],0.123 µg/mL
same,EC50,[6],0.166 µg/mL
same,EC50,[7],0.168 µg/mL
same,EC50,[8],0.225 µg/mL
same,EC50,"LT12/mdr; LT12, read-out: XTT Proliferationsassay, EC50",0.272 µg/mL
same,EC50,murine L1210,0.206 µg/mL
same,EC50,"L1210VCR; L1210, read-out: XTT Proliferationsassay, EC50",0.558 µg/mL
same,EC50,[9],0.224 µg/mL
same,EC50,"[1]; P388, read-out: XTT Proliferationsassay, EC50",0.215 µg/mL
same,EC50,"KB/HeLa Zellen; HeLa, 24 h",125 nM
same,Nucleosomen im Zelllysat,U-937 Zelllinie,konzentrationsabhängiger Anstieg
same,Nucleosomen im Zellkulturüberstand,U-937 Zelllinie,kein signifikanter Anstieg
same,Sättigungslöslichkeit in Wasser,[3],28.5 µg/mL
same,Optimale T/C % (Tag),"Melanom, MEXF462",0.0%
same,Optimale T/C % (Tag),"Mamma, MAXF857; day 10",9.6% (10)
same,Todesfällen,"Mamma, MAXF857; dead animals / total",0/6 Mäuse
"O=C(Nc1ccc2[nH]ncc2c1)C(=O)c1cn(Cc2ccc(Cl)cc2)c2ccccc12 [Verbindung 4, 2-[1-(4-Chlor-benzyl)-1H-indol-3-yl]-N-(1H-indazol-5-yl)-2-oxo-acetamid]",EC50,LT12/mdr; [10],0.093 µg/mL
same,EC50,L1210VCR; [11],0.241 µg/mL
same,EC50,[1]; [12],0.231 µg/mL
same,Hemmwirkung auf die Polymerisation von Tubulin,Rindertubulin,sehr potente Hemmwirkung
same,EC50,KB/HeLa Zellen; [13],252 nM
